{
  "source": "patent US20080280989A1",
  "about": "“Hydroxybenzamide Derivatives, the Method For Preparing Thereof and the Cosmetic Composition Containing the Same” (priority 2005, published 2008)",
  "key": {"[1]": {"tested_on": "procollagen type(I)", "experiment": "Stimulation of collagen biosynthesis (procollagen type(I) ELISA)", "format": "cell-based", "conditions": "Fibroblasts, 10 μM in serum-free medium, 24 hours, non-treated group taken as 100; for activity at 10 µM: Fibroblast", "method": "The hydroxybenzamide compounds according to Examples 18 were determined for their effects of stimulating collagen biosynthesis, and the results were compared to the effects obtained from resveratrol and tocopherol.\nFibroblasts were seeded into a 24-well microtiter plate in a cell count of 10^5 cells per well and cultured to a growth level of 90%. The cultured product was further cultured in a serum-free DMEM medium for 24 hours. Next, the cultured product was treated with the hydroxybenzamide compounds according to Examples 1˜8, resveratrol and tocopherol, dissolved in a serum-free medium at a concentration of 10 μM, and then was cultured in a CO2 incubator for 24 hours. After decanting the supernatant, procollagen was determined by using a procollagen type(I) ELISA kit. The results are shown in the following Table 2, wherein the biosynthesis activity is expressed based on the biosynthesis activity of non-treated group, taken as 100."}, "[2]": {"experiment": "Thermal stability according to isothermal discoloration test", "format": "physicochemical", "set-up": "key: 1: no discoloration; 2: discoloration into a light yellow color; 3: discoloration into a dark yellow color; 4: discoloration into a dark brown color", "conditions": "1000 pm in dimethylformaldehyde:ethanol:water=5:3:2, 40° C., naked eyes", "method": "The hydroxybenzamide compounds according to Examples 18 were determined for their thermal stability as compared to resveratrol.\nThe test was performed by dissolving each of the hydroxybenzamide compounds according to Examples 1˜8 into a test solvent (dimethylformaldehyde:ethanol:water=5:3:2) in a concentration of 1000 pm, and by allowing the test samples to be left in an isothermal chamber at 40° C. for a test period of 30, 60 and 90 days. Then, the test samples were observed by the naked eyes to determine discoloration degrees.\nDiscoloration of the samples was graded into Grade 1 Grade 4 as follows:\n2: discoloration into a light yellow color\n3: discoloration into a dark yellow color\n4: discoloration into a dark brown color"}, "[3]": {"tested_on": "collagenase", "experiment": "Effect of inhibiting collagenase expression", "format": "cell-based", "conditions": "Human fibroblasts, 10˜4M in serum-free DMEM, non-treated group taken as 100; for activity at 100 µM: Fibroblast", "method": "The hydroxybenzamide compounds according to Examples 1˜8 were determined for their effects of inhibiting collagenase expression, and the results were compared to the effects obtained from resveratrol and tocopherol.\nHuman fibroblasts were introduced into a 96-well microtiter plate containing a DMEM (Dulbecco's Modified Eagle's Media) with 2.5% fetal bovine serum (FBS) in a cell count of 5,000 cells per well and cultured to a growth level of 90%. Then, the cultured product was further cultured in a serum-free DMEM medium for 24 hours. Next, the cultured product was treated with the hydroxybenzamide compounds according to Examples 18, resveratrol and tocopherol, dissolved in a serum-free DMEM medium at a concentration of 10˜4M, and then the cell culture was collected. The cell culture was evaluated for the production of collagenase by using a commercially available collagenase measuring system (Amersham Pharmacia, USA). First, the cell culture was introduced into a 96-well plate coated uniformly with primary collagenase antibodies, and then an antigen-antibody reaction was carried out in an incubator for 3 hours. After 3 hours, secondary collagenase antibodies, to which chromophores were bound, were introduced into the 96-well plate, and the reaction was further carried out for 15 minutes. After 15 minutes, a color developer was added thereto to develop a color at room temperature for 15 minutes, and 1M sulfuric acid was further added thereto to quench the reaction (color development). […] The yellow-colored 96-well plate was measured for absorptivity at 405 nm by using an absorption spectrometer, and a degree of collagenase synthesis was calculated according to the following Mathematical Formula 1. At this time, absorptivity of the cell culture in a non-treated group was used as a control.\nCollagenase expression (%)=Absorptivity of the group treated with the corresponding sample/Absorptivity of the control×100 [Mathematical Formula 1]\nThe collagenase expression inhibiting activity was expressed based on the collagenase synthesis activity of the non-treated group, taken as 100."}, "[4]": {"tested_on": "Human keratinocyte HaCaT cell lines", "experiment": "Anti-oxidative effect using HaCaT model (lipid peroxidation assay kit)", "format": "cell-based", "conditions": "for activity at 100 µM: Homo sapiens, read-out: Lipid peroxidation (%)", "method": "The hydroxybenzamide compounds prepared in Examples 1-8 were determined for their anti-oxidative effects.\nHuman keratinocyte HaCaT cell lines were pipetted into 60 mm dishes in a cell count of 1.0×10^6 cells per dish, and were cultured by using a DMEM (FBS 10%) medium containing penicillin/streptomycin added thereto under the conditions of 37° C./5% CO2 for 1 day. Then, the cultured product was treated with each of the hydroxybenzamide compounds according to Examples 1˜8 in a concentration of 10˜4 mol. Also, the same cultured product was treated with the same concentration of tocopherol and resveratrol for 24 hours. In addition to the above, the cultured product was treated with t-BHT (t-butyl hydroperoxide) and cultured under the conditions of 37° C./5% CO2 for 4 hours to obtain cells. The cells were subjected to lysis by repeating freezing/thawing cycles. The following Test procedure was based on the method described in the assay kit used in this example.\nIn this example, Calbiochem Lipid peroxidation assay kit (Cat. No. 437634) was used as a test reagent, and lipid peroxidation was determined by using the mechanism of formation of stable compounds at 586 nm from the reaction between the above reagent and ester peroxides linked to long-chain unsaturated fatty acids, such as malondialdehyde (MDA) and 4-hydroxyalkenal (4-hydroxy-2(E)-nonenal, 4-HNE)."}, "[5]": {"conditions": "HaCaT cells, sample at 10˜4 mol for 24 hours, then t-BHT 4 hours, non-treated group = 100"}},
  "note": "Read-outs that look alike come from different tables or passages of the source.",
  "data": [
    {"compound": "O=C(Nc1ccccc1O)c1cc(O)cc(O)c1", "note": "[Ex. 2, 3,5-dihydroxy-N-(2-hydroxyphenyl)benzamide]", "values": [
      {"measurement": "activity at 10 µM", "setting": "[1]", "result": 121, "unit": "%"},
      {"measurement": "Discoloration after 30 days", "setting": "[2]", "result": 1},
      {"measurement": "Discoloration after 60 days", "setting": "[2]", "result": 1},
      {"measurement": "Discoloration After 90 days", "setting": "[2]", "result": 1},
      {"measurement": "activity at 100 µM", "setting": "[3]", "result": 69, "unit": "%"},
      {"measurement": "activity at 100 µM", "setting": "[4]; [5]", "result": 180, "unit": "%"}
    ]},
    {"compound": "Oc1ccc(C=Cc2cc(O)cc(O)c2)cc1", "note": "[Resveratrol, reference compound]", "values": [
      {"measurement": "activity at 10 µM", "setting": "[1]", "result": 111, "unit": "%"},
      {"measurement": "Discoloration after 30 days", "setting": "[2]", "result": 2},
      {"measurement": "Discoloration after 60 days", "setting": "[2]", "result": 3},
      {"measurement": "Discoloration After 90 days", "setting": "[2]", "result": 4},
      {"measurement": "activity at 100 µM", "setting": "[3]", "result": 81, "unit": "%"},
      {"measurement": "activity at 100 µM", "setting": "[4]; [5]", "result": 178, "unit": "%"}
    ]},
    {"compound": "COc1cc(NC(=O)c2cc(O)cc(O)c2)cc(OC)c1", "note": "[Ex. 6, 3,5-dihydroxy-N-(3,5-dimethoxyphenyl)benzamide]", "values": [
      {"measurement": "activity at 10 µM", "setting": "[1]", "result": 116, "unit": "%"},
      {"measurement": "Discoloration after 30 days", "setting": "[2]", "result": 1},
      {"measurement": "Discoloration after 60 days", "setting": "[2]", "result": 1},
      {"measurement": "Discoloration After 90 days", "setting": "[2]", "result": 1},
      {"measurement": "activity at 100 µM", "setting": "[3]", "result": 71, "unit": "%"},
      {"measurement": "activity at 100 µM", "setting": "[4]; [5]", "result": 172, "unit": "%"}
    ]},
    {"compound": "O=C(Nc1cccc(O)c1)c1cc(O)cc(O)c1", "note": "[Ex. 3, 3,5-dihydroxy-N-(3-hydroxyphenyl)benzamide]", "values": [
      {"measurement": "activity at 10 µM", "setting": "[1]", "result": 122, "unit": "%"},
      {"measurement": "Discoloration after 30 days", "setting": "[2]", "result": 1},
      {"measurement": "Discoloration after 60 days", "setting": "[2]", "result": 1},
      {"measurement": "Discoloration After 90 days", "setting": "[2]", "result": 1},
      {"measurement": "activity at 100 µM", "setting": "[3]", "result": 71, "unit": "%"},
      {"measurement": "activity at 100 µM", "setting": "[4]; [5]", "result": 182, "unit": "%"}
    ]},
    {"compound": "CC(C)(C)OO", "note": "[t-BHT, t-butyl hydroperoxide, reference compound]", "values": [
      {"measurement": "activity at 100 µM", "setting": "[4]; HaCaT, 24 h", "result": 320, "unit": "%"}
    ]},
    {"compound": "COc1ccc(NC(=O)c2cc(O)cc(O)c2)cc1OC", "note": "[Ex. 5, 3,5-dihydroxy-N-(3,4-dimethoxyphenyl)benzamide]", "values": [
      {"measurement": "activity at 10 µM", "setting": "[1]", "result": 115, "unit": "%"},
      {"measurement": "Discoloration after 30 days", "setting": "[2]", "result": 1},
      {"measurement": "Discoloration after 60 days", "setting": "[2]", "result": 1},
      {"measurement": "Discoloration After 90 days", "setting": "[2]", "result": 1},
      {"measurement": "activity at 100 µM", "setting": "[3]", "result": 72, "unit": "%"},
      {"measurement": "activity at 100 µM", "setting": "[4]; [5]", "result": 176, "unit": "%"}
    ]},
    {"compound": "COc1cc(NC(=O)c2cc(O)cc(O)c2)cc(OC)c1OC", "note": "[Ex. 7, 3,5-dihydroxy-N-(3,4,5-trimethoxyphenyl)benzamide]", "values": [
      {"measurement": "activity at 10 µM", "setting": "[1]", "result": 119, "unit": "%"},
      {"measurement": "Discoloration after 30 days", "setting": "[2]", "result": 1},
      {"measurement": "Discoloration after 60 days", "setting": "[2]", "result": 1},
      {"measurement": "Discoloration After 90 days", "setting": "[2]", "result": 1},
      {"measurement": "activity at 100 µM", "setting": "[3]", "result": 70, "unit": "%"},
      {"measurement": "activity at 100 µM", "setting": "[4]; [5]", "result": 179, "unit": "%"}
    ]},
    {"compound": "O=C(Nc1ccc(O)cc1)c1cc(O)cc(O)c1", "note": "[Ex. 1, 3,5-dihydroxy-N-(4-hydroxyphenyl)benzamide]", "values": [
      {"measurement": "activity at 10 µM", "setting": "[1]", "result": 143, "unit": "%"},
      {"measurement": "Discoloration after 30 days", "setting": "[2]", "result": 1},
      {"measurement": "Discoloration after 60 days", "setting": "[2]", "result": 1},
      {"measurement": "Discoloration After 90 days", "setting": "[2]", "result": 1},
      {"measurement": "activity at 100 µM", "setting": "[3]", "result": 67, "unit": "%"},
      {"measurement": "activity at 100 µM", "setting": "[4]; [5]", "result": 170, "unit": "%"}
    ]},
    {"compound": "Tocopherol [reference compound]", "values": [
      {"measurement": "Collagen biosynthesis activity (%)", "setting": "[1]", "result": 113, "unit": "%"},
      {"measurement": "Collagenase expression (%)", "setting": "[3]", "result": 95, "unit": "%"},
      {"measurement": "Lipid peroxidation (%)", "setting": "[4]; [5]", "result": 250, "unit": "%"}
    ]},
    {"compound": "COc1ccc(NC(=O)c2cc(O)cc(O)c2)cc1", "note": "[Ex. 4, 3,5-dihydroxy-N-(4-methoxyphenyl)benzamide]", "values": [
      {"measurement": "activity at 10 µM", "setting": "[1]", "result": 118, "unit": "%"},
      {"measurement": "Discoloration after 30 days", "setting": "[2]", "result": 1},
      {"measurement": "Discoloration after 60 days", "setting": "[2]", "result": 1},
      {"measurement": "Discoloration After 90 days", "setting": "[2]", "result": 1},
      {"measurement": "activity at 100 µM", "setting": "[3]", "result": 74, "unit": "%"},
      {"measurement": "activity at 100 µM", "setting": "[4]; [5]", "result": 186, "unit": "%"}
    ]},
    {"compound": "COc1ccc(NC(=O)c2cc(O)cc(O)c2)cc1O", "note": "[Ex. 8, 3,5-dihydroxy-N-(3-hydroxy-4-methoxyphenyl)benzamide]", "values": [
      {"measurement": "activity at 10 µM", "setting": "[1]", "result": 120, "unit": "%"},
      {"measurement": "Discoloration after 30 days", "setting": "[2]", "result": 1},
      {"measurement": "Discoloration after 60 days", "setting": "[2]", "result": 1},
      {"measurement": "Discoloration After 90 days", "setting": "[2]", "result": 1},
      {"measurement": "activity at 100 µM", "setting": "[3]", "result": 69, "unit": "%"},
      {"measurement": "activity at 100 µM", "setting": "[4]; [5]", "result": 181, "unit": "%"}
    ]}
  ]
}
